Data from PubChem BioAssay (NCI).
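Five concentrations, 48 hours, 96-well plates. GI50 = concentration required for 50% inhibition of growth. TGI: total growth inhibition.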

How the values were obtained:
Assay in all cases: growth of human tumour cells (NCI), 48 h
[1] = system: 786-0 renal
[2] = system: CAKI-1 renal
[3] = system: HCT-116 colon
[4] = system: NCI-H23 lung
[5] = system: OVCAR-3 ovarian
[6] = system: OVCAR-4 ovarian
[7] = system: PC-3 prostate
[8] = system: RPMI-8226 leukemia
[9] = system: SF-268 CNS
[10] = system: A498 renal

Row | SMILES | GI50 [1] [µM] | TGI [1] [µM] | GI50 [2] [µM] | TGI [2] [µM] | GI50 [3] [µM] | TGI [3] [µM] | GI50 [4] [µM] | TGI [4] [µM] | GI50 [5] [µM] | TGI [5] [µM] | GI50 [6] [µM] | TGI [6] [µM] | GI50 [7] [µM] | TGI [7] [µM] | GI50 [8] [µM] | TGI [8] [µM] | GI50 [9] [µM] | TGI [9] [µM] | TGI [10] [µM]
1 | CC1OC(OC2C(O)C(OCCc3ccc(O)c(O)c3)OC(CO)C2OC(=O)/C=C/c2ccc(O)c(O)c2)C(O)C(O)C1O (stereo unspecified) | 14.5 | 36.3 | 40 | > 100 | > 100 | > 100 | > 100 | > 100 | 27.4 | 79.7 | > 100 | > 100 | > 100 | > 100 | 42.4 | > 100 | > 100 | > 100 | –
2 | CCCCCCCCCCCCCP(=O)(OC)OC | – | 33.7 | – | 32.7 | – | 33.8 | – | 35.6 | – | 34.6 | – | 34.6 | – | – | – | 50.7 | – | – | –
3 | CC(O)(c1ccc(OCCC[N+](C)(C)C)cc1)C(C)(O)c1ccc(OCCC[N+](C)(C)C)cc1 (stereo unspecified) | – | > 100 | – | > 100 | – | > 100 | – | > 100 | – | > 100 | – | > 100 | – | – | – | – | – | > 100 | > 100
4 | O=C(CC1(O)C(=O)Nc2c(Cl)cc(Cl)cc21)c1ccc([N+](=O)[O-])cc1 (stereo unspecified) | – | > 100 | – | > 100 | – | > 59.2 | – | > 78.9 | – | > 64.1 | – | 31.2 | – | – | – | > 82.1 | – | > 100 | > 67.9
5 | Cc1cc(=O)n2c(cc3cccccc32)n1 | – | > 100 | – | > 100 | – | – | – | > 100 | – | > 100 | – | > 100 | – | – | – | > 100 | – | > 100 | > 100
6 | CSC(=NC(=O)c1ccccc1)SCCSC(=NC(=O)c1ccccc1)SC | – | > 100 | – | > 100 | – | > 100 | – | > 100 | – | > 100 | – | 87.6 | – | – | – | > 100 | – | > 100 | > 100
7 | CC(Oc1ccc2c(=O)cc(-c3ccccc3)oc2c1)C(=O)O (stereo unspecified) | – | > 100 | – | > 100 | – | > 100 | – | > 100 | – | > 100 | – | > 100 | – | – | – | – | – | > 100 | > 100
8 | c1ccc(N2CCN(CCCN3CCc4c([nH]c5ccccc45)C3c3cccnc3)CC2)cc1 (stereo unspecified) | – | > 100 | – | > 100 | – | > 100 | – | > 100 | – | > 100 | – | > 100 | – | – | – | > 100 | – | – | > 100
9 | Cc1ccc(-c2nc3ccccc3c(=O)n2NC2OC(CO)C(O)C(O)C2O)cc1 (stereo unspecified) | – | > 100 | – | > 100 | – | > 100 | – | > 100 | – | > 100 | – | > 100 | – | – | – | > 100 | – | > 100 | > 100
10 | CC1(C)C=C(N2CCN(C3=CC(C)(C)NC(C)(C)C3)CC2)CC(C)(C)N1 | – | > 100 | – | > 100 | – | > 100 | – | > 100 | – | > 100 | – | > 100 | – | – | – | > 100 | – | > 100 | > 100
11 | CN(CCc1ccccn1)/[N+]([O-])=N/O (tested in a mixture with another compound) | – | > 100 | – | > 100 | – | > 100 | – | > 100 | – | > 100 | – | > 100 | – | – | – | > 100 | – | > 100 | –
12 | O=C1C(c2ccccc2)=[N+]([O-])c2cc([N+](=O)[O-])ccc21 | – | 63.3 | – | – | – | 53.4 | – | > 100 | – | 36.8 | – | – | – | – | – | 74 | – | 46.9 | > 100
13 | CC(=O)CCn1[nH]c(=O)c(Cl)c(Cl)c1=O | – | > 100 | – | 28.8 | – | > 100 | – | > 100 | – | > 100 | – | > 100 | – | – | – | > 100 | – | > 100 | > 100
14 | COC(=O)/C(=N\Nc1nc(=S)[nH]n1N)C(C#N)c1ccc(Cl)cc1 (stereo unspecified) | – | > 100 | – | > 100 | – | > 100 | – | > 100 | – | > 100 | – | > 100 | – | – | – | > 100 | – | > 100 | > 100
15 | C=C1CCCC2OC(OC)CCC12 (stereo unspecified) | – | > 100 | – | > 100 | – | > 100 | – | > 100 | – | > 100 | – | > 100 | – | – | – | > 100 | – | > 100 | > 100
16 | CC1=C(C(=O)Nc2ccccc2C)C(c2ccccc2O)C(C(=O)Nc2ccccc2C)=C(C)N1 | – | 31.2 | – | > 100 | – | 36.9 | – | > 100 | – | 36.3 | – | 54.8 | – | – | – | 66.8 | – | 70.1 | 64.8
17 | Cc1ccc2c(c1)C(=O)/C(=C/c1cccc(OCC(=O)c3ccc(Cl)cc3)c1)CS2 | 11.3 | 24.6 | 12.4 | 37 | 1.89 | 3.85 | 3.03 | 23.4 | 5.58 | 18 | 4.07 | 18.5 | 2.99 | – | 1.85 | 4.47 | 10.4 | 33.3 | –
